Values belong to the compound of their own block, whether it stands above or below them.
How the values were obtained:
Type in all cases: biochemical
[1] = biological target: T1, serine racemase (mouse SR) (Mus musculus, UniProt Q9QZX7); experiment: enzymatic resolution of racemic β-EHAsp by recombinant enzyme
T1 construct: gene Srr; N-terminal His-tag, recombinant from E. coli
T1 sequence (Q9QZX7 1-339): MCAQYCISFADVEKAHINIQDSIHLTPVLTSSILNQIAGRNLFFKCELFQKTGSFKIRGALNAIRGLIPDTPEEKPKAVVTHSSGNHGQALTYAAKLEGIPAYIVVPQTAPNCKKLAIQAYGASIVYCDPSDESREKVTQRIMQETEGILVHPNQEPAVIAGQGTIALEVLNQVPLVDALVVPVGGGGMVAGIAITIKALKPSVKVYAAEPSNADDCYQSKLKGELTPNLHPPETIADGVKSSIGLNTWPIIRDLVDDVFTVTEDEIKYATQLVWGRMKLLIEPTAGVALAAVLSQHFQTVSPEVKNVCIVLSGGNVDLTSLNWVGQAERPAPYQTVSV

[2] = biological target: T2, asparaginase (AnsA; printed AsnA in the results, asparaginase 1) (Escherichia coli, UniProt P0A962); experiment: HPLC of urinary amino acids treated with purified enzyme
T2 construct: N-terminal His-tagged protein
T2 sequence (P0A962 1-338): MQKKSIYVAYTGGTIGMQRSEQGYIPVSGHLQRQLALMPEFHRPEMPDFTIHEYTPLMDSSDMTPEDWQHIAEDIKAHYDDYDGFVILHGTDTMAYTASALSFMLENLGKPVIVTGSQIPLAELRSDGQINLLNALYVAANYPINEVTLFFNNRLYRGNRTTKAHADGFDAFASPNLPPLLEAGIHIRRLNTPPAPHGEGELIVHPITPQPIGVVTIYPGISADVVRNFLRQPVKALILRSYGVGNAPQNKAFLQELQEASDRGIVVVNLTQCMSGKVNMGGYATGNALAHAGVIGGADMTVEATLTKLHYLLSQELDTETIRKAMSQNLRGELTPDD

[3] = biological target: T1, serine racemase (mouse SR); experiment: LDH-coupled L-Ser dehydration assay, steady-state kinetics
[4] = biological target: T3, D-serine dehydratase (Dsd1p) (Saccharomyces cerevisiae, UniProt P53095); experiment: HPLC and LC-ESI-MS of urinary amino acid degradation by purified enzyme
T3 construct: gene DSD1; N-terminal His-tagged protein
T3 sequence (P53095 1-428): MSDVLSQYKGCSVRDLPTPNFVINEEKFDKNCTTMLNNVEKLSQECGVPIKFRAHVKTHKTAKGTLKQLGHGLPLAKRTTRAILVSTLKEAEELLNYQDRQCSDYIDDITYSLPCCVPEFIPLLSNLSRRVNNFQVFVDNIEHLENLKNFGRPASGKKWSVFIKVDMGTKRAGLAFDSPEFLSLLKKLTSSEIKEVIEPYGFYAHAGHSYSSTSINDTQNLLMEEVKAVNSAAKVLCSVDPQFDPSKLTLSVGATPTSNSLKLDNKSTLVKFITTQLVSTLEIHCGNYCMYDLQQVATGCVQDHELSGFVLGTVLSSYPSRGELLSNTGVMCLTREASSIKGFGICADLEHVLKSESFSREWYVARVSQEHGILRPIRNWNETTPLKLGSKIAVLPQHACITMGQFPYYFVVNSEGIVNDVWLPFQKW

[5] = biological target: T4, asparagine synthase (AsnA) (Escherichia coli, UniProt P00963); experiment: preparative enzymatic amidation, HPLC
T4 construct: N-terminal His-tagged protein
T4 sequence (P00963 1-330): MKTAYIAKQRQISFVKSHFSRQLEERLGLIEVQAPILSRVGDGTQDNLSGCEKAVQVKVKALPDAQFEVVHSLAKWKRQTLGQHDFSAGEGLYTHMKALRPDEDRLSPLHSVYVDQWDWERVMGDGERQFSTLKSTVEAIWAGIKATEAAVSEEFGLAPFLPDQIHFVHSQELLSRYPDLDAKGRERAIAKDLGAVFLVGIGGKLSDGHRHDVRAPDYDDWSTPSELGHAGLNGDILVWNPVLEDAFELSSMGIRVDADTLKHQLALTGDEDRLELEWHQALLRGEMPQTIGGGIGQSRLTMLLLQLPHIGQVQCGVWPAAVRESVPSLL

Compound: N[C@@H](C(=O)O)[C@H](O)C(=O)O (racemic) [D-β-EHAsp]
- enzymatic resolution of racemic β-EHAsp by recombinant enzyme [1]: could efficiently eliminate D-β-EHAsp from the racemic mixture

- Ki [3]: 40 ± 6 µM
Compound: NC(=O)[C@H](O)[C@H](N)C(=O)O (stereo in doubt) [L-β-EHAsn, L-erythro-β-hydroxyasparagine]
- HPLC of urinary amino acids treated with purified enzyme [2]: Urinary β-OH-Asn could be converted into the corresponding isomer of β-hydroxy aspartate (β-OH-Asp) using the E. coli asparaginase
- HPLC and LC-ESI-MS of urinary amino acid degradation by purified enzyme [4]: the urinary Dsd1p substrate was identified as the (2S, 3S)-isomer of β-OH-Asn (L-β-EHAsn)

Compound: N[C@H](C(=O)O)[C@@H](O)C(=O)O [L-β-EHAsp]
- preparative enzymatic amidation, HPLC [5]: L-β-EHAsp was further converted to L-β-EHAsn by the action of E. coli AsnA
